The source of these data is patent US5308843A, “Method of inhibiting mammalian topoisomerase II and malignant cell growth in mammals, with substituted (S)-3-methyl-7-oxo-2,3-dihydro-7H-pyrido[1,2,3-de][1,4 ]-benzoxazine(and-benzothiazine)-6-carboxylic acids” (Sterling Drug Inc., priority 1990, dated 1994).

For data set [1], the system named is pancreatic ductal adenocarcinoma No. 03. The experiment in a line: In vivo antitumor assay, pancreatic ductal adenocarcinoma No. 03 (Panc03, SC). Further details: species or system mice. The text has this:
(§1) In vivo Antitumor Assay Procedure
(§2) Mice: Inbred: C3H/He; and Hybrids: B6D2F1 (C57BL/6 females×DBA/2 males), CD2F1 (Balb/c females×DBA/2 males) and B6C3F1 (C57BL/6×C3H) were bred at Wayne State University from strains obtained from the Frederick Cancer Research Facility, Frederick, Md. or from commercial suppliers.
(§3) Tumors: Murine Tumors: P388 leukemia and the following transplantable solid tumors of mice were used for in vivo testing: B16 melanoma, pancreatic ductal adenocarcinoma No. 03, colon adenocarcinoma No. 38 and mammary ductal adenocarcinoma No. 16/C. All tumors are in the Developmental Therapeutics Program frozen tumor repository, maintained by the Biological Testing Branch, Frederick, Md. Each has a detailed description, code identification number, and list of references at the National Tumor Repository. Tumors were maintained in the mouse strain of origin and were transplanted in the appropriate F1 hybrid (or the strain of origin) for therapy trials. The mice were supplied food and water ad libitum.
(§4) Chemotherapy: For pancreatic ductal adenocarcinoma No. 03, colon adenocarcinoma No. 38, and mammary ductal adenocarcinoma No. 16, the following methods were used to help ensure a more uniform tumor burden per mouse (thus reducing the requirement for greater numbers of mice per group), bilateral tumor implants were used. The animals necessary to begin an experiment were pooled, implanted bilaterally s.c. on day zero with 30-60-mg tumor fragments using a 12-gauge trocar, and again pooled before randomization to the various treatment and control groups. Chemotherapy was started within three days after tumor implantation while the number of cells per mouse was relatively small (1×10^7 -1×10^8 cells).
(§5) End Points for Assessing Antitumor Activity: Quantitative end points used to assess antitumor activity included % Increased Life Span (% ILS), Tumor Cell Kill (Log10 kill), and Tumor Growth Inhibition (T/C). Long Term Survivors (45 or 60 day) were excluded from calculations of % ILS and Tumor Cell Kill.
(§6) Endpoints were calculated as follows: [formula] where Dt is the median day of death for treated and Dc is the median day of death for control groups.
(§7) T/C Value: Tumors were measured with a caliper once or twice weekly (as needed) until either tumors exceeded 1600 mg or cure was assured. Tumor weights were estimated from two-dimensional measurements: Tumor Weight (mg)=(a×b^2)/2, where a and b are the tumor length and width (mm), respectively. Measurements were carried out simultaneously in both the treatment and control groups. When the control group tumors reached approximately 750-1500 mg in size (median of group), the median tumor weight of each group was determined (including zeros). The T/C value in percent is an indication of antitumor effectiveness. […]. […]

Assay in data set [2]: as above
Further details: species or system mice. To be noted: mouse, in vivo; Panc03 (SC); drug SC; QD3-9; read-out: Maximum Tolerated Total Dose.
Text: as §1, §2, §3, §4, §5, §6, §7

A short description of data set [3]: Toxicity observations in mice of the in vivo antitumor trials. From the text:
Dose limiting toxicity appeared to be leukopenia, based on small spleen sizes in necropsy of mice dying at lethal dosage levels. […] Host recovery was rapid, with mice regaining their lost body weight within two to five days post nadir (at the highest non-toxic dosage levels).

For the next data set, the target named is T1, human topoisomerase II (Homo sapiens, UniProt P11388).
T1 construct: Topo II was purified from late log phase suspension cultures of HeLa WIS; endogenous in cells; host or cells: HeLa WIS (late log phase suspension cultures); native enzyme purified in house
The experiment in a line: Mammalian (human) topoisomerase II inhibition assay: topo II-DNA complex stabilisation. It is filed as biochemical. Particulars: concentration with activity equal to the EC50 of reference mAMSA; 20 min at 37° C. The text has this: Mammalian Topoisomerase II Inhibition Assay Procedure
The inhibition of human topoisomerase II (hereafter topo II) was quantitated by a procedure adapted from that described by Trask et al., EMBO J., 3, 671-676 (1984). The assay quantitates the amount of topo II covalently complexed by DNA at equilibrium during a topo II reaction. This assay determines the potential of a compound to stabilize this complex, which potential is closely related to the cytotoxicity of the compound.
Topo II was purified from late log phase suspension cultures of HeLa WIS by an adaption of the method described by Per et al., Mol. Pharmacol., 32, 17-25 (1987).
Assays (in duplicate) were assembled at 4° C. Assay mix (25 μl) was distributed in Beckman (No. 265270) 1.5 ml microtitre tubes followed by the addition of 5 μl test compound to yield the final concentrations of assay components:
4 ng 3' end labeled (32p) pBR322 DNA (10^7 DPM/μg)
The assay mix including the test compound was incubated for 20 minutes at 37° C. The reaction was terminated at 37° C. by the addition of 3 μl 10% SDS followed by the addition of 266 μl 10 mM Tris-Cl pH 7.5, 20 μg/ml BSA, 20 μg/ml calf thymus DNA, 1% SDS.
A SDS/protein precipitate was formed by the addition of 28 μl 2.5M KCl followed by chilling on ice for a minimum of 10 minutes. The precipitate was collected and washed with a Brandell cell harvester on a GFB glass fiber filter membrane as follows. The contents of the assay tube were drawn up into the harvester. The tube was then rinsed 7× with 10 mM Tris-Cl pH 7.5, 1 mM EDTA and 100 mM KCl. The precipitate was washed with 1 L of a solution of 10 mM Tris-Cl pH 7.5, 1 mM EDTA, 100 mM KCl followed by 1 L of 95% ethyl alcohol and finally 0.5 L 70% of ethyl alcohol (per 48 samples in each case). After drying, CPM was determined by liquid scintillation counting with 5 ml Biofluor (NEN Research Products) or Readisafe (Beckman Instruments Inc.) cocktail.
Preparation of test compound--A stock solution (6 mg/ml) of test compound was prepared either in 0.1N sodium hydroxide or 0.2N hydrogen chloride. This solution then was diluted 1/5 into water and serially thereafter in either 0.02N sodium hydroxide or 0.04N hydrogen chloride, respectively. The stock solution and serial dilution of the test compound was stored at -20° C. prior to testing.
Screening of test compound--As an initial screen, the test compound was tested at a final concentration of 2, 20 and 200 μg/ml.
Controls--A solvent control which indicates the base level of topo II-DNA complex formed in the absence of the test compound was included in each test. A control, in which topo II was omitted, was included for each test compound at the highest drug concentration tested.
Reference agent--A dose response curve with mAMSA at 0.01, 0.08, 0.16, 0.32, 1.0 and 10 μg/ml was included in each test.
Data reduction--The EC50 (effective concentration at which 50% of the maximal DNA-topo II complex is formed) of a test compound is defined to be the concentration with activity equal to the EC50 of the reference agent, mAMSA. The maximal DNA-topo II complex formed is taken as that equal to that formed at the nearly saturating dose of mAMSA (10 μg/ml).

T1 sequence (P11388 whole entry): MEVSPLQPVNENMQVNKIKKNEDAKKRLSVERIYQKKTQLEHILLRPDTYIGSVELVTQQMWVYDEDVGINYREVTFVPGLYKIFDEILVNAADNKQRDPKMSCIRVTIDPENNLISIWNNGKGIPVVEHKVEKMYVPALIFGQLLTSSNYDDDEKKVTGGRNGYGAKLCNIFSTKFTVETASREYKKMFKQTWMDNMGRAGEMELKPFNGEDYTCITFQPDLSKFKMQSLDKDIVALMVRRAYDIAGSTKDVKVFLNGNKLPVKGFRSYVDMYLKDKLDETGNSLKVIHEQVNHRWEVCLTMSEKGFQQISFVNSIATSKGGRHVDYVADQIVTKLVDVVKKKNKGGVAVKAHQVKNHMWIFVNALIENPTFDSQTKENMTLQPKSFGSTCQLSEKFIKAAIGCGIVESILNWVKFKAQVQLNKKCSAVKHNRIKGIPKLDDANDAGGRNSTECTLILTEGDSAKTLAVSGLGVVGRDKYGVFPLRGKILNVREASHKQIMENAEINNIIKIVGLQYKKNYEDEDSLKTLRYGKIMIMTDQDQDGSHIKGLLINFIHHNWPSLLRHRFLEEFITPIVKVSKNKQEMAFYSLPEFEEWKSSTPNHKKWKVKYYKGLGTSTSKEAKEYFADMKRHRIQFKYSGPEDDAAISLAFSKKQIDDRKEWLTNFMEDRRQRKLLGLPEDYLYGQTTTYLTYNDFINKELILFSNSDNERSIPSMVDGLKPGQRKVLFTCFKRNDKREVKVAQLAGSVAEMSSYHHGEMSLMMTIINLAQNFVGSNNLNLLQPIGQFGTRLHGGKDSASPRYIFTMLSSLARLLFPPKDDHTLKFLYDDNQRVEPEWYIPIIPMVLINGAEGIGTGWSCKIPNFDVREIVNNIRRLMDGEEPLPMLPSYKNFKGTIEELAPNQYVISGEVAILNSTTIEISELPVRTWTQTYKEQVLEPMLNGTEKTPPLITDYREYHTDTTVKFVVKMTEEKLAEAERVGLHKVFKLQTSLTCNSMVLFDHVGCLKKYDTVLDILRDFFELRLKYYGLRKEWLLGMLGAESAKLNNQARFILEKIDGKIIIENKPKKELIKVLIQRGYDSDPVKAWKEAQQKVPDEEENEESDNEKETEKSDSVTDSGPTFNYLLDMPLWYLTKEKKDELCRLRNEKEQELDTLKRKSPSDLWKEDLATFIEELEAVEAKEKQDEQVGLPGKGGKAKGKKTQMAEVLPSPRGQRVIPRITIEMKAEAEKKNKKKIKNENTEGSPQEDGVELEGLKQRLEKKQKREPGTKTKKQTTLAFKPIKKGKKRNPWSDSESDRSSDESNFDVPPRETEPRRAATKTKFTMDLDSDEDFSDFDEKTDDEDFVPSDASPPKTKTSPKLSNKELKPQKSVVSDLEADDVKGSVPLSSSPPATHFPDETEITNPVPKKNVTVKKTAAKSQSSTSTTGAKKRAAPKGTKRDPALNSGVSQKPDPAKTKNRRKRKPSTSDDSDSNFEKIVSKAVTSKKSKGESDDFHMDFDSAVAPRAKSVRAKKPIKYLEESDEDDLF

As to `Cc1cc(-c2c(F)cc3c(=O)c(C(=O)O)cn4c3c2SC[C@@H]4C)cc(C)n1` [Example 5, (S)-10-(2,6-Dimethyl-4-pyridinyl)-9-fluoro-3-methyl-7-oxo-2,3-dihydro-7H-pyrido[1,2,3-de][1,4]benzothiazine-6-carboxylic acid], the “Long Term Survivors” value in data set [1] (Panc03 (SC), drug SC, QD3-9, 781 mg/kg total) is recorded as 0/5. Moreover, the “% T/C” value in data set [1] (Panc03 (SC), drug SC, QD3-9, at maximum tolerated total dose 781 mg/kg) was determined as 17%. The “antitumor activity (in words)” value in data set [1] (Pancreatic Ductal Adenocarcinoma 03) is listed as “clearly active”. In addition, the MTD in data set [2] came out at 781 mg/kg. Further, in data set [3] (based on small spleen sizes in necropsy of mice dying at lethal dosage levels), the Dose limiting toxicity entry is listed as “leukopenia”. Besides, in data set [3] (mouse, in vivo), the “host recovery (in words)” value is listed as “rapid”, the “host recovery: time to regain lost body weight post nadir” value is “two to five” and the tolerability entry is given as “well tolerated with no long delayed toxicity problems”. Further, it took 9.4 µM to reach a half-maximal effect at human topoisomerase II (EC50).

As a reminder, the EC50 is the concentration that produces a half-maximal response. Lower therefore signals higher potency in that assay.
